Assay results as given in patent publication US6875784B2, “Antimibicrobial [3.1.0.] bicyclic oxazolidinone derivatives” (priority 2002, dated 2005).
≈ marks a conversion by molar mass, not a printed value. Like-named read-outs stand apart in the source and are kept apart here.

Assays:
Assay type in all cases: cell-based
[1] = tested on: H. influenzae 30063; experiment: MIC by agar dilution, H. influenzae 30063
Text: (§1) The in vitro activity of compounds of the subject invention may be assessed by standard testing procedures such as the determination of minimum inhibitory concentration (MIC) by agar dilution as described in “Approved Standard. Methods for Dilution Antimicrobial Susceptibility Tests for Bacteria that Grow Aerobically,” 3rd ed., published 1993 by the National Committee for Clinical Laboratory standards, Villanova, Pa., USA.
(§2) The in vitro MICs of test compounds may be determined by a standard agar dilution method. A stock drug solution of each analog is prepared in a preferred solvent, usually DMSO:H2O (1:3). Serial 2-fold dilutions of each sample are made using 1.0 ml aliquots of sterile distilled water. To each 1.0 ml aliquot of drug is added 9 ml of molten Mueller Hinton agar medium. The drug-supplemented agar is mixed, poured into 15×100 mm petri dishes, and allowed to solidify and dry prior to inoculation.
(§3) Vials of each of the test organisms are maintained frozen in the vapor phase of a liquid nitrogen freezer. Test cultures are grown overnight at 35° C. on the medium appropriate for the organism. Colonies are harvested with a sterile swab, and cell suspensions are prepared in Trypticase Soy broth (TSB) to equal the turbidity of a 0.5 McFarland standard. A 1:20 dilution of each suspension is made in TSB. The plates containing the drug supplemented agar are inoculated with a 0.001 ml drop of the cell suspension using a Steers replicator, yielding approximately 10^4 to 10^5 cells per spot. The plates are incubated overnight at 35° C.
(§4) Following incubation the Minimum Inhibitory Concentration (MIC μg/ml), the lowest concentration of drug that inhibits visible growth of the organism, is read and recorded.
(§5) The in vitro MICs of test compounds were determined by a standard agar dilution method. A stock drug solution of each analog was prepared in the preferred solvent, usually DMSO:H2O (1:3). Serial 2-fold dilutions of each sample are made using 1.0 ml aliquots of sterile distilled water. To each 1.0 ml aliquot of drug was added 9 ml of molten Mueller Hinton agar medium The drug-supplemented agar was mixed, poured into 15×100 mm petri dishes, and allowed to soldify and dry prior to inoculation.
(§6) Vials of each of the test organisms are maintained frozen in the vapor phase of a liquid nitrogen freezer. Test cultures are grown overnight at 35° C. on the medium appropriate for the organism. Colonies are harvested with a sterile swab, and cell suspensions are prepared in Trypticase Soy broth (TSB) to equal the turbidity of a 0.5 McFarland standard. A 1:20 dilution of each suspension was made in TSB. The plates containing the drug supplemented agar are inoculated with a 0.001 ml drop of the cell suspension using a Steers replicator, yielding approximately 10^4 to 10^5 cells per spot. The plates are incubated overnight at 35° C. Following incubation the Minimum Inhibitory Concentration (MIC μg/ml), the lowest concentration of drug that inhibits visible growth of the organism, was read and recorded.

[2] = tested on: S. aureus UC9213; experiment: MIC by agar dilution, S. aureus UC9213; details: Staphylococcus aureus
Text: as §1, §2, §3, §4, §5, §6

[3] = tested on: S. pneumoniae UC9912; experiment: MIC by agar dilution, S. pneumoniae UC9912; details: Streptococcus pneumoniae
Text: as §1, §2, §3, §4, §5, §6

[4] = Haemophilus influenzae, 30063, read-out: MIC against H. influenza (30063)
[5] = UC9213, agar dilution, Mueller Hinton agar, overnight at 35° C., read-out: S. aureus UC9213 MIC
[6] = UC9912, agar dilution, Mueller Hinton agar, overnight at 35° C., read-out: S. pneumoniae UC9912 MIC
[7] = Haemophilus influenzae, 30063, agar dilution, Mueller Hinton agar, overnight at 35° C., read-out: H. influenzae 30063 MIC

Row | SMILES | MIC [1, 4] [µg/mL] | MIC [2, 5] [µg/mL] | MIC [3, 6] [µg/mL] | MIC [1, 7] [µg/mL] | other results
1 | CC(=O)NC[C@H]1CN(c2cc(F)c(N3C[C@@H]4[C@H](C3)[C@H]4C(=O)N(C)C)c(F)c2)C(=O)O1 [Example 3] | > 64 | – | – | – | –
2 | CCN(CC)C(=O)COC(=O)[C@H]1[C@@H]2CN(c3c(F)cc(N4C[C@H](CNC(=O)C(F)F)OC4=O)cc3F)C[C@@H]21 [Example 17] | > 64 | – | – | – | –
3 | COCC(=O)N1C2CN(c3ccc(N4C[C@H](CNC(C)=O)OC4=O)cc3F)CC21 (stereo partly drawn) [Example 51, N-({(5S)-3-[4-(6-methoxyacetyl-3,6-diazabicyclo[3.1.0]hex-3-yl)-3-fluorophenyl]-2-oxo-1,3-oxazolidin-5-yl}methyl)acetamide] | – | 8 (≈ 19.7 µM) | 2 (≈ 4.92 µM) | 32 (≈ 78.7 µM) | –
4 | COC(=O)[C@H]1[C@@H]2CN(c3c(F)cc(N4C[C@H](CNC(=O)C(F)F)OC4=O)cc3F)C[C@@H]21 [Example 16, methyl exo-(1R,5S)-3-[4-((5S)-5-{[(difluoroacetyl)amino]methyl}-2-oxo-1,3-oxazolidin-3-yl)-2,6-difluorophenyl]-3-azabicyclo[3.1.0]hexane-6-carboxylate] | > 64 | – | – | – | –
5 | CC(=O)NC[C@H]1CN(c2ccc(N3CC4C(C3)N4C(=O)COC(C)=O)c(F)c2)C(=O)O1 (stereo partly drawn) [Example 52, 2-[3-(4-(5S)-5-[(acetylamino)methyl]-2-oxo-1,3-oxazolidin-3-yl}2-fluorophenyl)-3,6-diazabicyclo[3.1.0]hex-6-yl]-2-oxoethyl acetate] | – | 1 | 1 | 32 | –
6 | CC(=O)NC[C@H]1CN(c2ccc(N3CC4NC4C3)c(F)c2)C(=O)O1 (stereo partly shown) [Example 49] | – | – | – | – | MIC ([2]; UC9213, read-out: S. aureus UC9213 MIC, μg/mL): 4 µg/mL (≈ 12 µM); MIC ([3]; UC9912, read-out: S. pneumoniae UC9912 MIC, μg/mL): 0.5 µg/mL (≈ 1.5 µM); MIC ([1]; Haemophilus influenzae, 30063, read-out: H. influenzae 30063 MIC, μg/mL): 8 µg/mL (≈ 23.9 µM)
7 | CCC(=O)NC[C@H]1CN(c2cc(F)c(N3CC4OC4C3)c(F)c2)C(=O)O1 (stereo partly drawn) [Example 41, N-({(5S)-3-[3,5-difluoro-4-(6-oxa-3-azabicyclo[3.1.0]hex-3-yl)phenyl]-2-oxo-1,3-oxazolidin-5-yl}methyl)propanamide] | – | 2 (≈ 5.44 µM) | 0.5 (≈ 1.36 µM) | 16 (≈ 43.6 µM) | –
8 | CCN(CC)C(=O)COC(=O)[C@H]1[C@@H]2CN(c3c(F)cc(N4C[C@H](CNC(=O)C(Cl)Cl)OC4=O)cc3F)C[C@@H]21 [Example 13, 2-(diethylamino)-2-oxoethyl exo-(1R,5S)-3-[4-((5S)-5-{[(dichloroacetyl)amino]methyl}-2-oxo-1,3-oxazolidin-3-yl)-2,6-difluorophenyl]-3-azabicyclo[3.1.0]hexane-6-carboxylate] | > 64 | – | – | – | –

Further lines, with some results ahead:

Row | MIC [1, 4] [µg/mL] | MIC [2, 5] [µg/mL] | MIC [3, 6] [µg/mL] | MIC [1, 7] [µg/mL] | SMILES | other results
9 | – | 1 (≈ 2.83 µM) | 0.5 (≈ 1.42 µM) | 8 (≈ 22.6 µM) | CC(=O)NC[C@H]1CN(c2cc(F)c(N3CC4OC4C3)c(F)c2)C(=O)O1 (stereo partly shown) [Example 40] | –
10 | > 64 | – | – | – | CC(=O)NC[C@H]1CN(c2cc(F)c(N3C[C@@H]4[C@H](C3)[C@H]4NC(=O)Nc3ccccc3)c(F)c2)C(=O)O1 [Example 28, N-{[(5S)-3-(4-{exo-(1R,5S)-6-[(anilinocarbonyl)amino]-3-azabicyclo[3.1.0]hex-3-yl}-3,5-difluorophenyl)-2-oxo-1,3-oxazolidin-5-yl]methyl}acetamide] | –
11 | – | 8 (≈ 21.3 µM) | 2 (≈ 5.31 µM) | 64 (≈ 170 µM) | CC(=O)NC[C@H]1CN(c2ccc(N3CC4C(C3)N4C(C)=O)c(F)c2)C(=O)O1 (stereo partly drawn) [Example 50, N-({(5S)-3-[4-(6-acetyl-3,6-diazabicyclo[3.1.0]hex-3-yl)-3-fluorophenyl]-2-oxo-1,3-oxazolidin-5-yl]methyl)acetamide] | –
12 | 16 (≈ 47.4 µM) | – | – | – | CC(=O)NC[C@H]1CN(c2ccc(N3CCOCC3)c(F)c2)C(=O)O1 [linezolid, reference compound] | MIC ([3]; UC9912, read-out: MIC against S. pneumoniae (UC 9912)): 1 µg/mL (≈ 2.96 µM)
